Test system: 996289-038-R-J1-PDC complex spheroid viability
Test: Anticancer human tumor 996289-038-R-J1-PDC patient-derived colon adenocarcinoma cell line growth inhibition [CLK]
Details: for IC50: curve of first compound; for viability, T/C: stronger effect = lower value; active = viability on the fitted dose curve at most 10% of control; inactive = the rest
Source text: A high-throughput screen of multi-cell type tumor spheroids was designed to identify active combinations of […] and targeted small molecules. Complex spheroids include a stromal component modeled by human endothelial cells (HUVEC) and fibroblasts modeled by human mesenchymal stem cells (MSCs). The concentration ranges selected for each drug and investigational agent were based upon clinically achievable concentrations if the clinical Cmax of the agent was known.
Compounds. The drugs and investigational agents: cirtuvivint (SM08502; NSC835563), CC-671 (NSC850746), vemurafenib (NSC761431), tapotoclax (NSC804041), sotorasib (NSC818433), adagrasib (NSC831453), MRTX-1133 (NSC836407), BAY2416964 (NSC825713), copanlisib (NSC816437), inavolisib (NSC800729), abemaciclib (NSC768073), osimertinib (NSC779217), entinostat (NSC756642), eltanexor (KPT-8602, NSC794443), venetoclax (NSC766270), ceralasertib (NSC777638), bortezomib (NSC756655), olaparib (NSC753686), talazoparib (NSC767125), alisertib (NSC759677), peposertib (NSC802822), gemcitabine (NSC613327), 5-fluorouracil (NSC19893), SN-38 (NSC673596), oxaliplatin (NSC266046), paclitaxel (NSC125973), and doxorubicin (NSC123127), were obtained from the National Cancer Institute (NCI) Developmental Therapeutics Program Chemical Repository. The FDA-approved anticancer drug set is available from the Developmental Therapeutics Program at https://dtp.cancer.gov/organization/dscb/obtaining/available plates.htm. […] The stock solutions were prepared in dimethyl sulfoxide (DMSO, Sigma-Aldrich, St. Louis, MO, cat. D2650), except for the platinum complexes which were prepared in saline (Quality Biological, Gaithersburg, MD, cat. 114-055-101), at 800-fold the tested concentration and stored at -70 degrees C prior to their use. All drugs and investigational agents were tested over a range starting from a high concentration at or near the clinical Cmax and decreasing in half-log increments. If the clinical Cmax for an agent had not been determined, the highest concentration tested was 10 microM.
Cell Culture. All cells were maintained in an incubator at 37 degrees C and 5% CO2 with 95% humidity. The PDC lines were cultured according to standard operating procedures established by the NCI PDMR. Briefly, all PDCs were thawed and cultured in Matrigel-coated flasks prepared with a working solution of 1X Ham's F-12 nutrient mix, without supplementation (Invitrogen, Waltham, MA, cat. 11765054), 100 U/mL penicillin-streptomycin (Invitrogen, cat. 15140122), and 2.5% Matrigel (Corning Inc., Corning, NY, cat. 354248) for the first three passages. The 947758-054-R-J2-PDC line was cultured in 6B/Colon 1A media, which includes advanced DMEM/F-12 (Thermo Fisher Scientific, cat. 12634028), 10 mM HEPES (Thermo Fisher Scientific, cat. 15630080), 1X GlutaMAX supplement (Thermo Fisher Scientific, cat. 35050061), 0.1 mg/mL primocin (InvivoGen, cat. ant-pm-2), 10% defined fetal bovine serum, heat inactivated (HyClone Laboratories Inc., cat. SH30070.03HI), 1.25 mM N-Acetyl-L-cysteine (Sigma-Aldrich, cat. A9165), 10 mM nicotinamide (Sigma-Aldrich, cat. N0636), 1X B-27 supplement (Thermo Fisher Scientific, cat. 17504044), 1X N-2 supplement (Thermo Fisher Scientific, cat. 17502048), and 10 microM Y-27632 dihydrochloride (Tocris Bioscience, cat. 1254). The 876862-298-R-J1-PDC was cultured in 6E media, which includes all 6B/Colon 1A media components plus 50% L-WRN conditioned media (ATCC, cat. CRL-3276), 50 ng/mL recombinant human EGF recombinant protein (hEGF; Thermo Fisher Scientific, cat. PHG0311), 10 ng/mL recombinant human fibroblast growth factor 10 (hGFG-10; PeproTech, cat. 100-26), 1 ng/mL recombinant human fibroblast growth factor 2 (hFGF-2; PeproTech, cat. 100-18B), and 1 µM prostaglandin E2 (PGE2; Tocris, cat. 2296). The 227483-062-R1-J1-PDC line was cultured in Panc media, containing all 6E components except hFGF-2, with the addition of 500 nM SB-431542 (Selleckchem, cat. S1067) and 10 nM gastrin (Tocris, cat. 3006). […]
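Also: spheroids exposed to the agents for 7 days before readout.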

C=CC(=O)Nc1cc(Nc2nccc(-c3cn(C)c4ccccc34)n2)c(OC)cc1N(C)CCN(C)C + CN1CCN(c2cc(C(=O)Nc3cc4cc(-c5cnn(C)c5)ccc4cn3)ccn2)CC1
active: viability, T/C (second compound 1 µM, first compound 0.000949 µM) 6.28% | viability, T/C (second compound 1 µM, first compound 0.003 µM) 6.22% | viability, T/C (second compound 1 µM, first compound 0.00949 µM) 7.21% | viability, T/C (second compound 1 µM, first compound 0.03 µM) 6.93% | viability, T/C (second compound 1 µM, first compound 0.0949 µM) 4.43% | viability, T/C (second compound 1 µM, first compound 0.3 µM) 1.67% | viability, T/C (second compound 3.16 µM, first compound 0.000949 µM) 0.79% | viability, T/C (second compound 3.16 µM, first compound 0.003 µM) 1.11% | viability, T/C (second compound 3.16 µM, first compound 0.00949 µM) 1.16% | viability, T/C (second compound 3.16 µM, first compound 0.03 µM) 1.29% | viability, T/C (second compound 3.16 µM, first compound 0.0949 µM) 0.93% | viability, T/C (second compound 3.16 µM, first compound 0.3 µM) 0.71% | viability, T/C (second compound 10 µM, first compound 0.000949 µM) 1.47% | viability, T/C (second compound 10 µM, first compound 0.003 µM) 0.58% | viability, T/C (second compound 10 µM, first compound 0.00949 µM) 0.99% | viability, T/C (second compound 10 µM, first compound 0.03 µM) 1.04% | viability, T/C (second compound 10 µM, first compound 0.0949 µM) 0.51% | viability, T/C (second compound 10 µM, first compound 0.3 µM) 1.04%
> 300 nM: IC50 (second compound 0.0316 µM) | IC50 (second compound 0.1 µM)
91 nM: IC50 (second compound 0.316 µM)
inactive: viability, T/C (second compound 0.0316 µM, first compound 0.000949 µM) 104% | viability, T/C (second compound 0.0316 µM, first compound 0.003 µM) 104% | viability, T/C (second compound 0.0316 µM, first compound 0.00949 µM) 105% | viability, T/C (second compound 0.0316 µM, first compound 0.03 µM) 103% | viability, T/C (second compound 0.0316 µM, first compound 0.0949 µM) 99.8% | viability, T/C (second compound 0.0316 µM, first compound 0.3 µM) 74.7% | viability, T/C (second compound 0.1 µM, first compound 0.000949 µM) 93.7% | viability, T/C (second compound 0.1 µM, first compound 0.003 µM) 93.7% | viability, T/C (second compound 0.1 µM, first compound 0.00949 µM) 91.2% | viability, T/C (second compound 0.1 µM, first compound 0.03 µM) 84.4% | viability, T/C (second compound 0.1 µM, first compound 0.0949 µM) 86% | viability, T/C (second compound 0.1 µM, first compound 0.3 µM) 65.9% | viability, T/C (second compound 0.316 µM, first compound 0.000949 µM) 74.2% | viability, T/C (second compound 0.316 µM, first compound 0.003 µM) 69% | viability, T/C (second compound 0.316 µM, first compound 0.00949 µM) 63.5% | viability, T/C (second compound 0.316 µM, first compound 0.03 µM) 56.8% | viability, T/C (second compound 0.316 µM, first compound 0.0949 µM) 53.5% | viability, T/C (second compound 0.316 µM, first compound 0.3 µM) 37.2%
< 0.949 nM: IC50 (second compound 1 µM) | IC50 (second compound 3.16 µM) | IC50 (second compound 10 µM)

Nc1ccccc1NC(=O)c1ccc(CNC(=O)OCc2cccnc2)cc1 + CN1CCN(c2cc(C(=O)Nc3cc4cc(-c5cnn(C)c5)ccc4cn3)ccn2)CC1
inactive: viability, T/C (second compound 0.0316 µM, first compound 0.0316 µM) 99.7% | viability, T/C (second compound 0.0316 µM, first compound 0.1 µM) 103% | viability, T/C (second compound 0.0316 µM, first compound 0.316 µM) 91.4% | viability, T/C (second compound 0.0316 µM, first compound 1 µM) 81.7% | viability, T/C (second compound 0.0316 µM, first compound 3.16 µM) 61.8% | viability, T/C (second compound 0.0316 µM, first compound 10 µM) 42.3% | viability, T/C (second compound 0.1 µM, first compound 0.0316 µM) 110% | viability, T/C (second compound 0.1 µM, first compound 0.1 µM) 88.1% | viability, T/C (second compound 0.1 µM, first compound 0.316 µM) 83.7% | viability, T/C (second compound 0.1 µM, first compound 1 µM) 71.1% | viability, T/C (second compound 0.1 µM, first compound 3.16 µM) 60% | viability, T/C (second compound 0.1 µM, first compound 10 µM) 38.3% | viability, T/C (second compound 0.316 µM, first compound 0.0316 µM) 70.1% | viability, T/C (second compound 0.316 µM, first compound 0.1 µM) 64.8% | viability, T/C (second compound 0.316 µM, first compound 0.316 µM) 64.3% | viability, T/C (second compound 0.316 µM, first compound 1 µM) 60.4% | viability, T/C (second compound 0.316 µM, first compound 3.16 µM) 46.4% | viability, T/C (second compound 0.316 µM, first compound 10 µM) 20.9%
< 31.6 nM: IC50 (second compound 1 µM) | IC50 (second compound 3.16 µM) | IC50 (second compound 10 µM)
2330 nM: IC50 (second compound 0.316 µM)
6350 nM: IC50 (second compound 0.0316 µM)
active: viability, T/C (second compound 1 µM, first compound 0.0316 µM) 8.94% | viability, T/C (second compound 1 µM, first compound 0.1 µM) 5.54% | viability, T/C (second compound 1 µM, first compound 0.316 µM) 6.13% | viability, T/C (second compound 1 µM, first compound 1 µM) 3.31% | viability, T/C (second compound 1 µM, first compound 3.16 µM) 1.46% | viability, T/C (second compound 1 µM, first compound 10 µM) 1.42% | viability, T/C (second compound 3.16 µM, first compound 0.0316 µM) 0.74% | viability, T/C (second compound 3.16 µM, first compound 0.1 µM) 0.78% | viability, T/C (second compound 3.16 µM, first compound 0.316 µM) 0.83% | viability, T/C (second compound 3.16 µM, first compound 1 µM) 2.18% | viability, T/C (second compound 3.16 µM, first compound 3.16 µM) 1.99% | viability, T/C (second compound 3.16 µM, first compound 10 µM) 1.71% | viability, T/C (second compound 10 µM, first compound 0.0316 µM) 0.41% | viability, T/C (second compound 10 µM, first compound 0.1 µM) 1.24% | viability, T/C (second compound 10 µM, first compound 0.316 µM) 1.06% | viability, T/C (second compound 10 µM, first compound 1 µM) 0.6% | viability, T/C (second compound 10 µM, first compound 3.16 µM) 0.7% | viability, T/C (second compound 10 µM, first compound 10 µM) 1.88%
5030 nM: IC50 (second compound 0.1 µM)

From PubChem BioAssay AID2060600 (Molecular Pharmacology Branch, DTP, NCI, 2025)
